Measured values as given in patent publication US20050222200A1, “AMIDE DERIVATIVES AS ION CHANNEL LIGANDS AND PHARMACEUTICAL COMPOSITIONS AND METHODS OF USING THE SAME” (Renovis, Inc., priority 2003, published 2005).

target: T1, VR1 (Homo sapiens, UniProt Q8NER1); assay: High throughput calcium imaging assay of VR1 antagonists (Fura2, Flex Station, 96 well); type: cell-based; details: Table 1 activity class; also: test concentration or dose not given here
T1 construct: expressed in transfected cells; host or cells: 293 cells ("293 neurons" [sic])
T1 sequence (Q8NER1 whole entry, species assumed): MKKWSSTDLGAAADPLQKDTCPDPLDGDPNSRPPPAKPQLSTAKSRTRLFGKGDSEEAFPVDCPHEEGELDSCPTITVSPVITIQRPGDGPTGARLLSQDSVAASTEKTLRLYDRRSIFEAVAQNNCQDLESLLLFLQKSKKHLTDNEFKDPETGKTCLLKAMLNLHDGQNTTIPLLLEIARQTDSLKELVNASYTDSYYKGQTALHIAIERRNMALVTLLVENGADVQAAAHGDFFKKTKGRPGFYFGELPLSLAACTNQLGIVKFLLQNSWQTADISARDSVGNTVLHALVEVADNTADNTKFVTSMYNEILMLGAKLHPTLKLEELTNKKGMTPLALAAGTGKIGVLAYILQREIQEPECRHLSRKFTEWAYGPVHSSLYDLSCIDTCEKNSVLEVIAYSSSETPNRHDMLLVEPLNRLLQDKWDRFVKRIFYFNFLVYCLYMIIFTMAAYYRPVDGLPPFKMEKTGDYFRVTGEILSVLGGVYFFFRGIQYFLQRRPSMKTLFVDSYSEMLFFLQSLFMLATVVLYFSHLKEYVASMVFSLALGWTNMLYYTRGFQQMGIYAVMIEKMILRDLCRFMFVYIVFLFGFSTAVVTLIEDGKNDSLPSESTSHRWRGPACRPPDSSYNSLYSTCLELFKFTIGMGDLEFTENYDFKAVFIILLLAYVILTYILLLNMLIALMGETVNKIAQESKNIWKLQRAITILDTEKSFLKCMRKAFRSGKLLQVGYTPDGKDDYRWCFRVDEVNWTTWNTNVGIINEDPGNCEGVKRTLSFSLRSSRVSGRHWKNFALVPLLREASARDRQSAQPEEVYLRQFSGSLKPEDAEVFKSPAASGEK

SMILES	inhibition of calcium ion influx induced by capsaicin stimulation
CCC/C=C/c1ccc(C(=O)NC2CCCCC2)cc1 [Compound 181]	+ (compound exhibited 0-25% inhibition of calcium ion influx induced by capsaicin stimulation)
CCC/C=C/c1ccc(C(=O)NCc2ccco2)cc1 [Compound 183]	+ (compound exhibited 0-25% inhibition of calcium ion influx induced by capsaicin stimulation)
CCC/C=C/c1ccc(C(=O)NCc2ccc(C(C)C)cc2)cc1 [Compound 185]	+ (compound exhibited 0-25% inhibition of calcium ion influx induced by capsaicin stimulation)
CCC/C=C/c1ccc(C(=O)NCCCn2ccnc2)cc1 [Compound 190]	+ (compound exhibited 0-25% inhibition of calcium ion influx induced by capsaicin stimulation)
CCC/C=C/c1ccc(C(=O)NC(c2ccccc2)c2ccccc2)cc1 [Compound 191]	+ (compound exhibited 0-25% inhibition of calcium ion influx induced by capsaicin stimulation)
CCC/C=C/c1ccc(C(=O)NCCN2CCCC2)cc1 [Compound 192]	+ (compound exhibited 0-25% inhibition of calcium ion influx induced by capsaicin stimulation)
CCC/C=C/c1ccc(C(=O)NCCCCC)cc1 [Compound 193]	++ (compound exhibited 25-50% inhibition of calcium ion influx induced by capsaicin stimulation)
CCC/C=C/c1ccc(C(=O)NCCc2ccccc2Cl)cc1 [Compound 194]	+ (compound exhibited 0-25% inhibition of calcium ion influx induced by capsaicin stimulation)
CCC/C=C/c1ccc(C(=O)NCc2ccccc2)cc1 [Compound 196]	+ (compound exhibited 0-25% inhibition of calcium ion influx induced by capsaicin stimulation)
CCC/C=C/c1ccc(C(=O)NCCCC)cc1 [Compound 197]	+ (compound exhibited 0-25% inhibition of calcium ion influx induced by capsaicin stimulation)
CCC/C=C/c1ccc(C(=O)NCCC)cc1 [Compound 198]	++ (compound exhibited 25-50% inhibition of calcium ion influx induced by capsaicin stimulation)
CCC/C=C/c1ccc(C(=O)Nc2ccncc2)cc1 [Compound 202]	+ (compound exhibited 0-25% inhibition of calcium ion influx induced by capsaicin stimulation)
CCC/C=C/c1ccc(C(=O)Nc2cccnc2)cc1 [Compound 203]	+ (compound exhibited 0-25% inhibition of calcium ion influx induced by capsaicin stimulation)
CCC/C=C/c1ccc(C(=O)Nc2cc[nH]n2)cc1 [Compound 204]	+ (compound exhibited 0-25% inhibition of calcium ion influx induced by capsaicin stimulation)
CCC/C=C/c1ccc(C(=O)Nc2nccs2)cc1 [Compound 205]	+ (compound exhibited 0-25% inhibition of calcium ion influx induced by capsaicin stimulation)
CCC/C=C/c1ccc(C(=O)NCC2CCCO2)cc1 (stereo not drawn) [Compound 206]	+ (compound exhibited 0-25% inhibition of calcium ion influx induced by capsaicin stimulation)
CCC/C=C/c1ccc(C(=O)NC2CCC(Cc3ccccc3)CC2)cc1 (stereo not drawn) [Compound 207]	++ (compound exhibited 25-50% inhibition of calcium ion influx induced by capsaicin stimulation)

SMILES	inhibition of calcium ion influx induced by capsaicin stimulation
CCC/C=C/c1ccc(C(=O)NCc2ccc3c(c2)OCO3)cc1 [Compound 208]	+ (compound exhibited 0-25% inhibition of calcium ion influx induced by capsaicin stimulation)
CCC/C=C/c1ccc(C(=O)NCCN2CCOCC2)cc1 [Compound 209]	+ (compound exhibited 0-25% inhibition of calcium ion influx induced by capsaicin stimulation)
CCC/C=C/c1ccc(C(=O)NCc2cccc(C(F)(F)F)c2)cc1 [Compound 211]	+ (compound exhibited 0-25% inhibition of calcium ion influx induced by capsaicin stimulation)
CCC/C=C/c1ccc(C(=O)NCc2cc(OC)c(OC)c(OC)c2)cc1 [Compound 213]	+ (compound exhibited 0-25% inhibition of calcium ion influx induced by capsaicin stimulation)
CCC/C=C/c1ccc(C(=O)NC2CCCC2)cc1 [Compound 214]	+ (compound exhibited 0-25% inhibition of calcium ion influx induced by capsaicin stimulation)
CCC/C=C/c1ccc(C(=O)NCc2ccccn2)cc1 [Compound 216]	+ (compound exhibited 0-25% inhibition of calcium ion influx induced by capsaicin stimulation)
CCC/C=C/c1ccc(C(=O)NCCc2ccc(OC)c(OC)c2)cc1 [Compound 217]	+ (compound exhibited 0-25% inhibition of calcium ion influx induced by capsaicin stimulation)
CCC/C=C/c1ccc(C(=O)NC(C)(C)CO)cc1 [Compound 218]	+ (compound exhibited 0-25% inhibition of calcium ion influx induced by capsaicin stimulation)
CCC/C=C/c1ccc(C(=O)NC(C)(C)c2ccccc2)cc1 [Compound 219]	+ (compound exhibited 0-25% inhibition of calcium ion influx induced by capsaicin stimulation)
CCC/C=C/c1ccc(C(=O)NCC)cc1 [Compound 223]	+++ (compound exhibited 50-75% inhibition of calcium ion influx induced by capsaicin stimulation)
CCC/C=C/c1ccc(C(=O)NCc2cccs2)cc1 [Compound 224]	++ (compound exhibited 25-50% inhibition of calcium ion influx induced by capsaicin stimulation)
CCC/C=C/c1ccc(C(=O)Nc2ccccc2C#N)cc1 [Compound 225]	+ (compound exhibited 0-25% inhibition of calcium ion influx induced by capsaicin stimulation)
CCC/C=C/c1ccc(C(=O)Nc2cccc(N(C)C)c2)cc1 [Compound 226]	+++ (compound exhibited 50-75% inhibition of calcium ion influx induced by capsaicin stimulation)
CCC/C=C/c1ccc(C(=O)Nc2ccc(N(CC)CC)cc2)cc1 [Compound 227]	+ (compound exhibited 0-25% inhibition of calcium ion influx induced by capsaicin stimulation)
CCC/C=C/c1ccc(C(=O)Nc2cccc(Cl)c2)cc1 [Compound 228]	+++ (compound exhibited 50-75% inhibition of calcium ion influx induced by capsaicin stimulation)
CCC/C=C/c1ccc(C(=O)Nc2ccccc2CCC)cc1 [Compound 230]	+ (compound exhibited 0-25% inhibition of calcium ion influx induced by capsaicin stimulation)
